pKi: −log10 of the molar value.
These molecules were tested against T1, human muscarinic M3 receptor (Homo sapiens, UniProt P20309) (assay: hM3 β-Lac potency assay (cell based β-lactamase, inhibition of carbamyl choline induced signal)). Conditions: CHO cells expressing human M3 receptor with NFAT-β-lactamase reporter; 80 nM carbamyl choline, 4 h; IC50 converted to Ki by Cheng-Prusoff.
T1 construct: expressed in transfected cells
Method: M3 potency was determined in CHO-K1 cells transfected with the NFAT-Betalactamase gene. CHO (Chinese Hamster Ovary) cells recombinantly expressing the human muscarinic M3 receptor were transfected with the NFAT_β-Lac_Zeo plasmid.
The cells were re-suspended at 2×10^5 cells/ml in growth medium (composition as described above). […] Muscarinic M3 receptor signalling was stimulated using 80 nM carbamyl choline (Aldrich N240-9) incubated with the cells for 4 h at 37° C./5% CO2 and monitored at the end of the incubation period using a Tecan SpectraFluor+ plate reader (λ-excitation 405 nm, emission 450 nm and 503 nm). […] Inhibition curves were plotted and IC50 values generated using a 4-parameter sigmoid fit and converted to Ki values using the Cheng-Prusoff correction and the KD value for carbamyl choline in the assay.

T1 sequence (P20309 whole entry): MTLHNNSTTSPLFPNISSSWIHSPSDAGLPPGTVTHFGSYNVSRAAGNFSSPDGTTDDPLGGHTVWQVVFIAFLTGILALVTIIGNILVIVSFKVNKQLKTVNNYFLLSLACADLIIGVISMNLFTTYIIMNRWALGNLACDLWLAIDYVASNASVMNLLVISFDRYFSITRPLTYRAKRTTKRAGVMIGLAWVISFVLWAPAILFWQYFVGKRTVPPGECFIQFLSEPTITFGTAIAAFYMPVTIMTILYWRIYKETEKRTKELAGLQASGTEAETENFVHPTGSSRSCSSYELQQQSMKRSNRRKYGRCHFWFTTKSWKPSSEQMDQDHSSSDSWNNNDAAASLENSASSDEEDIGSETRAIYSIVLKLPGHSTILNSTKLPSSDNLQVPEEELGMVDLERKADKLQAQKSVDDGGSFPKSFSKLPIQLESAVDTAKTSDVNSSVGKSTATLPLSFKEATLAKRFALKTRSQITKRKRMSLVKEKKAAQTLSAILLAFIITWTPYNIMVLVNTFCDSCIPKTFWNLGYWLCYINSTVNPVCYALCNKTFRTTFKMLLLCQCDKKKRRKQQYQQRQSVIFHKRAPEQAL

Question: With `CC(C)(CCC(C(N)=O)(c1ccccc1)c1ccccc1)N1CC(Sc2cccc(O)c2)C1` [Example 15, 5-[3-(3-Hydroxy-phenylsulfanyl)-azetidin-1-yl]-5-methyl-2,2-diphenyl-hexanoic acid amide] as the molecule, how does the pKi read?
Answer: The pKi was 9.43.

Question: How did the pKi turn out when `CC(C)(CCC(C(N)=O)(c1ccccc1)c1ccccc1)N1CC(NCc2ccc(Cl)c(O)c2)C1` [Example 12, 5-[3-(4-Chloro-3-hydroxy-benzylamino)-azetidin-1-yl]-5-methyl-22-diphenyl-hexanoic acid amide] was run?
Answer: Its pKi is 9.04.

Question: `CC(C)(CCC(C#N)(c1ccccc1)c1ccccc1)N1CC(NCc2cc(F)ccc2O)C1` [Example 7, 5-[3-(5-Fluoro-2-hydroxy-benzylamino)-azetidin-1-yl]-5-methyl-2,2-diphenyl-hexanenitrile] was tested. Which pKi did it give?
Answer: The pKi was 8.36.

Question: How did the pKi turn out when `CC(C)(CCC(C(N)=O)(c1ccccc1)c1ccccc1)N1CC(NCc2ccc(F)c(O)c2)C1` [Example 10, 5-[3-(4-Fluoro-3-hydroxy-benzylamino)-azetidin-1-yl]-5-methyl-2,2-diphenyl-hexanoic acid amide] was run?
Answer: Its pKi is 9.40.

Question: How did the pKi turn out when `CC(C)(CCC(C(N)=O)(c1ccccc1)c1ccccc1)N1CC(NCc2ccccc2O)C1` [Example 9, 5-[3-(2-Hydroxy-benzylamino)-azetidin-1-yl]-5-methyl-2,2-diphenyl-hexanoic acid amide] was run?
Answer: The pKi was 9.23.

Question: `CC(C)(CCC(C(N)=O)(c1ccccc1)c1ccccc1)N1CC(NCc2cc(Cl)ccc2O)C1` [Example 4, 5-[3-(5-Chloro-2-hydroxy-benzylamino)-azetidin-1-yl]-5-methyl-2,2-diphenyl-hexanoic acid amide] was tested. Which pKi did it give?
Answer: Its pKi is 7.25.

Question: How did the pKi turn out when `CC(C)(CCC(C#N)(c1ccccc1)c1ccccc1)N1CC(NCc2cc(Cl)ccc2O)C1` [Example 8, 5-[3-(5-Chloro-2-hydroxy-benzylamino)-azetidin-1-yl]-5-methyl-2,2-diphenyl-hexanenitrile] was run?
Answer: Its pKi is < 6.50.

Question: With `CC(C)(CCC(C(N)=O)(c1ccccc1)c1ccccc1)N1CC(NCc2cc(F)ccc2O)C1` [Example 5, 5-[3-(5-Fluoro-2-hydroxy-benzylamino)-azetidin-1-yl]-5-methyl-2,2-diphenyl-hexanoic acid amide] as the molecule, how does the pKi read?
Answer: The pKi was 8.60.

Question: With `CC(C)(CCC(C(N)=O)(c1ccccc1)c1ccccc1)N1CC(NCc2ccccc2)C1` [Example 2, 5-(3-Benzylamino-azetidin-1-yl)-5-methyl-2,2-diphenyl-hexanoic acid amide] as the molecule, how does the pKi read?
Answer: The pKi was 9.25.

Question: With `CC(C)(CCC(C(N)=O)(c1ccccc1)c1ccccc1)N1CC(NCc2cccc(O)c2Cl)C1` [Example 3, 5-[3-(2-Chloro-3-hydroxy-benzylamino)-azetidin-1-yl]-5-methyl-2,2-diphenyl-hexanoic acid amide] as the molecule, how does the pKi read?
Answer: The pKi was 8.68.

Question: With `CC(C)(CCC(C(N)=O)(c1ccccc1)c1ccccc1)N1CC(NCc2cccc(O)c2)C1` [Example 6, 5-[3-(3-Hydroxy-benzylamino)-azetidin-1-yl]-5-methyl-2,2-diphenyl-hexanoic acid amide] as the molecule, how does the pKi read?
Answer: Its pKi is 9.14.

From US20100160279A1, “Azetidine Derivatives as Muscarinic Receptor Antagonists” (Pfizer Inc, priority 2006, published 2010)
